# Assay results reported in patent EP4725948A1, “PYRROLO[2,3-D]PYRIMIDIN-4-AMINE DERIVATIVE AND USE THEREOF IN MEDICINE” (Haisco Pharmaceutical Group Co., Ltd., priority 2023, dated 2024).
# Tested on: not listed separately
# Assay: Pharmacokinetic test in rats (inhalation administration)
# Settings: SD rats, single inhalation dose 0.03 mg/kg
# Procedure: Experimental objective: In this experiment, the test compound was administered as a single dose via inhalation to SD rats, and the concentrations of the test compound in rat plasma and lungs were determined to evaluate the pharmacokinetic characteristics and bioavailability of the test compound in the rats.
# Experimental animals: Male SD rats, 180-200 g, purchased from Chengdu Dossy Experimental Animals Co., Ltd.
# Experimental method: On the day of the experiment, SD rats were randomly assigned into 6 groups according to body weight (for each compound), with 2 rats in each group. The rats were fasted with water available for 12 to 16 hours one day before the administration, and were fed 4 hours after the administration.
# Plasma sampling: before and after the administration, blood was taken from the orbits of the rats under isoflurane anaesthesia, and placed in an EDTAK2 centrifuge tube. Centrifugation was performed at 6000 rpm at 4°C for 10 min, and the plasma was collected.
# Lung tissue sampling: Animals from each group were euthanised by CO2 inhalation at 0.25, 0.5, 1, 4, 7 and 24 hours after the administration. Then, the animal was dissected to collect lung tissue, which was rinsed with physiological saline, dried with filter paper, weighed in the balance, kept on wet ice and homogenised within 2 hours using a 6-fold volume (i.e., 6 mL per 1 g of tissue) of homogenisation buffer (50% methanol-water).
# Before analysis and detection, all samples were stored at -60°C. The samples were analysed quantitatively by LC-MS/MS.
row,Structure (SMILES),Lung AUC0-t/plasma AUC0-t
1,"CC(C)(Cc1csc(C2(C)C(=O)Nc3nc(-n4nc(Cc5cccc(F)c5F)c5ncc(F)cc54)nc(N)c32)n1)C(=O)O (single isomer, unassigned) [Compound 36-1]",49.1
2,CC(C)(Cc1csc([C@]2(C)C(=O)Nc3nc(-c4nc(CCC(F)(F)C(F)(F)F)n5ncccc45)nc(N)c32)n1)C(=O)O [Compound 3-1],65

# Results, then the compound that gave them:
row,Lung AUC0-t/plasma AUC0-t,Structure (SMILES)
1,659,CC(C)(Cc1cccc([C@@]2(C)C(=O)Nc3nc(-c4nn(CCC(F)(F)C(F)(F)F)c5cc(Cl)cnc45)nc(N)c32)c1)C(=O)O [Compound 6-1]
2,43.4,CC(C)(Cc1csc([C@]2(C)C(=O)Nc3nc(-c4nc(CCC(F)(F)C(F)(F)F)n5cc(F)ccc45)nc(N)c32)n1)C(=O)O [Compound 45-1]

# Same assay, conditions: SD rats, single inhalation dose 0.03 mg/kg, lung tissue
Structure (SMILES),Lung AUC0-t,Lung Cmax
"CC(C)(Cc1csc(C2(C)C(=O)Nc3nc(-n4nc(Cc5cccc(F)c5F)c5ncc(F)cc54)nc(N)c32)n1)C(=O)O (single isomer, unassigned) [Compound 36-1]",10133 ng·h/mL,4067 ng/mL
CC(C)(Cc1csc([C@]2(C)C(=O)Nc3nc(-c4nc(CCC(F)(F)C(F)(F)F)n5ncccc45)nc(N)c32)n1)C(=O)O [Compound 3-1],3626 ng·h/mL,2979 ng/mL
"CC(C)(Cc1csc(C2(C)C(=O)Nc3nc(-n4nc(CCC(F)(F)C(F)(F)F)c5ncc(F)cc54)nc(N)c32)n1)C(=O)O (single isomer, unassigned) [Compound 37-1]",3281 ng·h/mL,1729 ng/mL

# Now from value to compound:
Lung AUC0-t,Lung Cmax,Structure (SMILES)
5173 ng·h/mL,2825 ng/mL,CC(C)(Cc1cccc([C@@]2(C)C(=O)Nc3nc(-c4nn(CCC(F)(F)C(F)(F)F)c5cc(Cl)cnc45)nc(N)c32)c1)C(=O)O [Compound 6-1]
4500 ng·h/mL,2846 ng/mL,CC(C)(Cc1csc([C@]2(C)C(=O)Nc3nc(-c4nc(CCC(F)(F)C(F)(F)F)n5cc(F)ccc45)nc(N)c32)n1)C(=O)O [Compound 45-1]

# Molecular target: T1, soluble guanylate cyclase (sGC) (Homo sapiens, UniProt Q02108+Q02153)
# T1 sequence (Q02108 1-690): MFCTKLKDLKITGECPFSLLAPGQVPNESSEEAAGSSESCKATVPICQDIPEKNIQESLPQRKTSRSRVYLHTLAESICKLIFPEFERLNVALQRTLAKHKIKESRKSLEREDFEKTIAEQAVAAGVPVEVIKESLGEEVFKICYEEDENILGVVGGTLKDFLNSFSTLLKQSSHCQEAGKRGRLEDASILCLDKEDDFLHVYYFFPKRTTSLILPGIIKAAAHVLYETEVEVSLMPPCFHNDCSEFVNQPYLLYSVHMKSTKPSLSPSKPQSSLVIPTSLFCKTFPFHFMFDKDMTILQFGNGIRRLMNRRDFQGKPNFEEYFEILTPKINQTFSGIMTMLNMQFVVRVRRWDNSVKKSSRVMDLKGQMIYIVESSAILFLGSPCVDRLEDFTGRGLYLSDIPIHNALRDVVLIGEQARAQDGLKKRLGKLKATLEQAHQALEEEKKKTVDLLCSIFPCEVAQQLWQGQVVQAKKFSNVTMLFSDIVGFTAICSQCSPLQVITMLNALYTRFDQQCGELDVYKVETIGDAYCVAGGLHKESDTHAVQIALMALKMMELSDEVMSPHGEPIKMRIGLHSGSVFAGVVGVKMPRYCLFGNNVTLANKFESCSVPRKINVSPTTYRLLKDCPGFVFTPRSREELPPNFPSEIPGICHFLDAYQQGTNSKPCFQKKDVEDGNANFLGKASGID
# T1 sequence (Q02153 1-619): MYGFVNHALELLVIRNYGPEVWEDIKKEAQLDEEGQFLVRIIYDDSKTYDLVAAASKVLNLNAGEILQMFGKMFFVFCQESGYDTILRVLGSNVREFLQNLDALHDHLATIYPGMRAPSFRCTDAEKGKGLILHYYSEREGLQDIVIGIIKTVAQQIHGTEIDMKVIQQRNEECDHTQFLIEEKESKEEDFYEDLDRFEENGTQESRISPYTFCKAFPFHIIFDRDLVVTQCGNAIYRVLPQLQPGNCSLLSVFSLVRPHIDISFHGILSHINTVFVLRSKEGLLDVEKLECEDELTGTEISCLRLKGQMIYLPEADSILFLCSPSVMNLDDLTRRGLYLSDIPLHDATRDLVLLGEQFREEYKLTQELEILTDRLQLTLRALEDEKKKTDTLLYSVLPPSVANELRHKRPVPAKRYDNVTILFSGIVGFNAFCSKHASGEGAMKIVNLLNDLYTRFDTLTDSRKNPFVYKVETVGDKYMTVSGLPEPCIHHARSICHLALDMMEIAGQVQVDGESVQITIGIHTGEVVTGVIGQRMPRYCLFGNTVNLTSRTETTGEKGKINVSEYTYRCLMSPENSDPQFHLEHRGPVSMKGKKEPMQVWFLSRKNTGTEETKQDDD
# Assay: In vitro detection experiment for soluble guanylate cyclase (sGC) activity (TR-FRET);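 further: enzyme reaction started with GTP and run for 60 min at 37°C, followed by a 60 min detection step at room temperature, with EC50 obtained by nonlinear curve fitting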
# Settings: not given
row,Structure (SMILES),EC50
1,CC(C)(Cc1cccc(C2(C)C(=O)Nc3nc(-n4c(=O)n(CCC(F)(F)C(F)(F)F)c5ncccc54)nc(N)c32)c1)C(=O)O (racemic) [Compound 9],< 20 nM
2,CC(C)(Cc1coc(C2(C)C(=O)Nc3nc(-n4nc(Cc5cccc(F)c5F)c5c(F)cccc54)nc(N)c32)n1)C(=O)O (centres unmarked) [Compound 42],< 20 nM
3,CC(C)(Cc1csc(C2(C)C(=O)Nc3nc(-n4nc(CCC(F)(F)C(F)(F)F)c5cc(F)ccc54)nc(N)c32)n1)C(=O)O (racemic) [Compound 17],< 20 nM
4,CC(C)(Cc1coc(C2(C)C(=O)Nc3nc(-n4c(=O)n(CCC(F)(F)C(F)(F)F)c5c(F)cccc54)nc(N)c32)n1)C(=O)O (centres unmarked) [Compound 16],< 20 nM
5,CC(C)(Cc1csc(C2(C)C(=O)Nc3nc(-n4c(=O)n(CCC(F)(F)C(F)(F)F)c5ncccc54)nc(N)c32)n1)C(=O)O (centres unmarked) [Trifluoroacetate of compound 10],< 20 nM
6,CC(C)(Cc1csc(C2(C)C(=O)Nc3nc(-n4nc(CCC(F)(F)C(F)(F)F)c5ncccc54)nc(N)c32)n1)C(=O)O (centres unmarked) [Compound 29],< 20 nM
7,CC(C)(Cc1csc(C2(C)C(=O)Nc3nc(-c4nn(CCC(F)(F)C(F)(F)F)c5cc(Cl)cnc45)nc(N)c32)n1)C(=O)O (centres unmarked) [Compound 20],< 20 nM
8,CC(C)(Cc1csc(C2(C)C(=O)Nc3nc(-n4c(=O)n(CC5CCCCC5)c5ncc(F)cc54)nc(N)c32)n1)C(=O)O (centres unmarked) [Compound 13],< 20 nM
9,CC(C)(Cc1csc(C2(C)C(=O)Nc3nc(-n4nc(CCC(F)(F)C(F)(F)F)c5ncc(F)cc54)nc(N)c32)n1)C(=O)O (racemic) [Compound 37],< 20 nM
10,CC(C)(Cc1cccc(C2(C)C(=O)Nc3nc(-c4nc(CCC(F)(F)C(F)(F)F)n5ncccc45)nc(N)c32)c1)C(=O)O (centres unmarked) [Compound 18],< 20 nM
11,CC(C)(Cc1csc(C2(C)C(=O)Nc3nc(-c4nn(Cc5cccc(F)c5F)c5cccnc45)nc(N)c32)n1)C(=O)O (centres unmarked) [Compound 24],< 20 nM
12,CC(C)(Cc1csc(C2(C)C(=O)Nc3nc(-n4nc(CCC(F)(F)C(F)(F)F)c5cc(Cl)ccc54)nc(N)c32)n1)C(=O)O (racemic) [Trifluoroacetate of compound 4],< 20 nM
13,CC(C)(Cc1csc(C2(C)C(=O)Nc3nc(-n4c(=O)n(Cc5cccc(F)c5F)c5ncc(F)cc54)nc(N)c32)n1)C(=O)O (centres unmarked) [Trifluoroacetate of compound 28],< 20 nM
14,CC(C)(Cc1csc(C2(C)C(=O)Nc3nc(-n4c(=O)n(CCC(F)(F)C(F)(F)F)c5c(F)cccc54)nc(N)c32)n1)C(=O)O (racemic) [Trifluoroacetate of compound 14],< 20 nM
15,CC(C)(Cc1csc(C2(C)C(=O)Nc3nc(-c4nc(CCC(F)(F)C(F)(F)F)n5cc(F)ccc45)nc(N)c32)n1)C(=O)O (racemic) [Compound 45],< 20 nM
16,CC(C)(Cc1coc(C2(C)C(=O)Nc3nc(-n4c(=O)n(CCC(F)(F)C(F)(F)F)c5cc(F)ccc54)nc(N)c32)n1)C(=O)O (centres unmarked) [Compound 11],< 20 nM
17,CC(C)(Cc1csc(C2(C)C(=O)Nc3nc(-n4nc(Cc5ccccc5F)c5ncc(F)cc54)nc(N)c32)n1)C(=O)O (racemic) [Compound 35],< 20 nM
18,CC(C)(Cc1csc(C2(C)C(=O)Nc3nc(-c4nc(CCC(F)(F)C(F)(F)F)n5ncccc45)nc(N)c32)n1)C(=O)O (racemic) [Compound 3],< 20 nM
19,CC(C)(Cc1coc(C2(C)C(=O)Nc3nc(-c4nc(CCC(F)(F)C(F)(F)F)n5cc(F)ccc45)nc(N)c32)n1)C(=O)O (centres unmarked) [Compound 46],< 20 nM
20,CC(C)(Cc1csc(C2(C)C(=O)Nc3nc(-c4nc(Cc5ccccc5F)n5ncccc45)nc(N)c32)n1)C(=O)O (racemic) [Compound 19],< 20 nM
21,CC(C)(Cc1cccc(C2(C)C(=O)Nc3nc(-n4nc(CCC(F)(F)C(F)(F)F)c5ncccc54)nc(N)c32)c1)C(=O)O (centres unmarked) [Trifluoroacetate of compound 5],< 20 nM

# Other lines, results leading:
row,EC50,Structure (SMILES)
1,< 20 nM,CC(C)(Cc1csc(C2(C)C(=O)Nc3nc(-n4nc(Cc5ccccc5F)c5c(F)cccc54)nc(N)c32)n1)C(=O)O (racemic) [Compound 41]
2,< 20 nM,CC(C)(Cc1csc(C2(C)C(=O)Nc3nc(-n4nc(Cc5cccc(F)c5F)c5ncc(F)cc54)nc(N)c32)n1)C(=O)O (racemic) [Compound 36]
3,< 20 nM,CC(C)(Cc1csc(C2(C)C(=O)Nc3nc(-n4c(=O)n(CCC(F)(F)C(F)(F)F)c5ncc(F)cc54)nc(N)c32)n1)C(=O)O (racemic) [Compound 12]
4,< 20 nM,CC(C)(Cc1coc(C2(C)C(=O)Nc3nc(-n4nc(Cc5ccccc5F)c5c(F)cccc54)nc(N)c32)n1)C(=O)O (centres unmarked) [Compound 40]
5,< 20 nM,"CC(C)(Cc1cccc(C2(C)C(=O)Nc3nc(-n4c(=O)n(CCC(F)(F)C(F)(F)F)c5cc(Cl)ccc54)nc(N)c32)c1)C(=O)O (single isomer, unassigned) [Compound 1-2]"
6,< 20 nM,CC(C)(Cc1csc(C2(C)C(=O)Nc3nc(-c4nn(Cc5ccccc5F)c5cccnc45)nc(N)c32)n1)C(=O)O (centres unmarked) [Trifluoroacetate of compound 23]
7,< 20 nM,CC(C)(Cc1coc(C2(C)C(=O)Nc3nc(-c4nn(CCC(F)(F)C(F)(F)F)c5cc(Cl)cnc45)nc(N)c32)n1)C(=O)O (centres unmarked) [Compound 21]
8,< 20 nM,CC(C)(Cc1coc(C2(C)C(=O)Nc3nc(-n4nc(Cc5ccccc5F)c5cc(Cl)ccc54)nc(N)c32)n1)C(=O)O (centres unmarked) [Trifluoroacetate of compound 34]
9,< 20 nM,CC(C)(Cc1csc(C2(C)C(=O)Nc3nc(-n4nc(CC5CCCCC5)c5ncc(F)cc54)nc(N)c32)n1)C(=O)O (centres unmarked) [Compound 44]
10,< 20 nM,CC(C)(Cc1csc(C2(C)C(=O)Nc3nc(-n4c(=O)n(Cc5ccccc5F)c5cc(F)ccc54)nc(N)c32)n1)C(=O)O (racemic) [Trifluoroacetate of compound 38]

# Same assay, conditions: enzymatic agonism and/or activation of sGC; 1.5 nM sGC, 5 µM GTP, 100 µM DETA NONOate
row,Structure (SMILES),EC50
1,CC(C)(Cc1coc(C2(C)C(=O)Nc3nc(-n4nc(CCC(F)(F)C(F)(F)F)c5cc(F)ccc54)nc(N)c32)n1)C(=O)O (centres unmarked) [Trifluoroacetate of compound 33],< 20 nM
2,CC(C)(Cc1csc(C2(C)C(=O)Nc3nc(-n4c(=O)n(Cc5ccccc5F)c5c(F)cccc54)nc(N)c32)n1)C(=O)O (centres unmarked) [Trifluoroacetate of compound 15],< 20 nM

# Second part, the compound after the results:
row,EC50,Structure (SMILES)
1,< 20 nM,CC(C)(Cc1coc(C2(C)C(=O)Nc3nc(-n4c(=O)n(CCC(F)(F)C(F)(F)F)c5cc(Cl)ccc54)nc(N)c32)n1)C(=O)O (centres unmarked) [Compound 8]
2,< 20 nM,CC(C)(Cc1csc(C2(C)C(=O)Nc3nc(-n4c(=O)n(CCC(F)(F)C(F)(F)F)c5cc(F)ccc54)nc(N)c32)n1)C(=O)O (centres unmarked) [Compound 31]
3,< 20 nM,CC(C)(Cc1csc(C2(C)C(=O)Nc3nc(-n4nc(Cc5ccccc5F)c5cc(Cl)ccc54)nc(N)c32)n1)C(=O)O (centres unmarked) [Trifluoroacetate of compound 32]
